# Assay results from PubChem BioAssay AID1963869 (Molecular Pharmacology Branch, DTP, NCI, 2024).
# Test system: KRAS patient-derived spheroids with HUVEC/MSC, viability
# Assay: Anticancer human tumor 323965-272-R-J2-PDC patient-derived pancreatic carcinoma cell line growth inhibition [KRAS2]
# Settings: for IC50: curve of first compound; for viability, T/C: stronger effect = lower value
# Method in brief: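 Combination screen of spheroid viability in tumor-cell co-cultures with endothelial (HUVEC) and mesenchymal stem cell stroma. Each agent was tested in half-log dilutions, topping at clinical Cmax or at 10 microM without a known Cmax.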
# [1] = second compound 0.1 µM, first compound 0.000316 µM
# [2] = second compound 0.1 µM, first compound 0.001 µM
# [3] = second compound 0.1 µM, first compound 0.00316 µM
# [4] = second compound 0.1 µM, first compound 0.01 µM
# [5] = second compound 0.1 µM, first compound 0.0316 µM
# [6] = second compound 0.316 µM, first compound 0.000316 µM
# [7] = second compound 0.316 µM, first compound 0.001 µM
# [8] = second compound 0.316 µM, first compound 0.00316 µM
# [9] = second compound 0.316 µM, first compound 0.01 µM
# [10] = second compound 0.316 µM, first compound 0.0316 µM
# [11] = second compound 1 µM, first compound 0.000316 µM
# [12] = second compound 1 µM, first compound 0.001 µM
# [13] = second compound 1 µM, first compound 0.00316 µM
# [14] = second compound 1 µM, first compound 0.01 µM
# [15] = second compound 1 µM, first compound 0.0316 µM
# [16] = second compound 3.16 µM, first compound 0.000316 µM
# [17] = second compound 3.16 µM, first compound 0.001 µM
# [18] = second compound 3.16 µM, first compound 0.00316 µM
# [19] = second compound 3.16 µM, first compound 0.01 µM
# [20] = second compound 3.16 µM, first compound 0.0316 µM
# [21] = second compound 10 µM, first compound 0.000316 µM
# [22] = second compound 10 µM, first compound 0.001 µM
# [23] = second compound 10 µM, first compound 0.00316 µM
# [24] = second compound 10 µM, first compound 0.01 µM
# [25] = second compound 10 µM, first compound 0.0316 µM
# [26] = second compound 0.1 µM, first compound 0.1 µM
# [27] = second compound 0.316 µM, first compound 0.1 µM
# [28] = second compound 1 µM, first compound 0.1 µM
# [29] = second compound 3.16 µM, first compound 0.1 µM
# [30] = second compound 10 µM, first compound 0.1 µM
# [31] = second compound 0.1 µM, first compound 0.316 µM
# [32] = second compound 0.1 µM, first compound 1 µM
# [33] = second compound 0.1 µM, first compound 3.16 µM
# [34] = second compound 0.1 µM, first compound 10 µM
# [35] = second compound 0.316 µM, first compound 0.316 µM
# [36] = second compound 0.316 µM, first compound 1 µM
# [37] = second compound 0.316 µM, first compound 3.16 µM
# [38] = second compound 0.316 µM, first compound 10 µM
# [39] = second compound 1 µM, first compound 0.316 µM
# [40] = second compound 1 µM, first compound 1 µM
# [41] = second compound 1 µM, first compound 3.16 µM
# [42] = second compound 1 µM, first compound 10 µM
# [43] = second compound 3.16 µM, first compound 0.316 µM
# [44] = second compound 3.16 µM, first compound 1 µM
# [45] = second compound 3.16 µM, first compound 3.16 µM
# [46] = second compound 3.16 µM, first compound 10 µM
# [47] = second compound 10 µM, first compound 0.316 µM
# [48] = second compound 10 µM, first compound 1 µM
# [49] = second compound 10 µM, first compound 3.16 µM
# [50] = second compound 10 µM, first compound 10 µM
# 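Further: spheroids exposed to agents for 7 days.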
# 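Wherever viability, T/C is given: 100% = DMSO vehicle control viability.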
compound,measurement,setting,value
CC(=O)Nc1cccc(-n2c(=O)n(C3CC3)c(=O)c3c(Nc4ccc(I)cc4F)n(C)c(=O)c(C)c32)c1 + COc1cc2nc(C)nc(NC(C)c3cc(N)cc(C(F)(F)F)c3)c2cc1OC1CCOC1,IC50,second compound 0.1 µM,1.6 nM
same,IC50,second compound 0.316 µM,0.949 nM
same,IC50,second compound 1 µM,0.713 nM
same,IC50,second compound 3.16 µM,0.703 nM
same,IC50,second compound 10 µM,1.09 nM
same,"viability, T/C","second compound 0.1 µM, first compound 0.0001 µM",84.1%
same,"viability, T/C",[1],67.3%
same,"viability, T/C",[2],54.5%
same,"viability, T/C",[3],43.7%
same,"viability, T/C",[4],32.6%
same,"viability, T/C",[5],23.7%
same,"viability, T/C","second compound 0.316 µM, first compound 0.0001 µM",67.8%
same,"viability, T/C",[6],59.6%
same,"viability, T/C",[7],48.9%
same,"viability, T/C",[8],39.6%
same,"viability, T/C",[9],31.9%
same,"viability, T/C",[10],22%
same,"viability, T/C","second compound 1 µM, first compound 0.0001 µM",73.5%
same,"viability, T/C",[11],60.4%
same,"viability, T/C",[12],43.5%
same,"viability, T/C",[13],37.4%
same,"viability, T/C",[14],28.5%
same,"viability, T/C",[15],20.8%
same,"viability, T/C","second compound 3.16 µM, first compound 0.0001 µM",73%
same,"viability, T/C",[16],57.9%
same,"viability, T/C",[17],44.6%
same,"viability, T/C",[18],36.3%
same,"viability, T/C",[19],28.7%
same,"viability, T/C",[20],18.4%
same,"viability, T/C","second compound 10 µM, first compound 0.0001 µM",80.7%
same,"viability, T/C",[21],68.2%
same,"viability, T/C",[22],49.2%
same,"viability, T/C",[23],36.3%
same,"viability, T/C",[24],26.1%
same,"viability, T/C",[25],12.7%
CN(C)C/C=C/C(=O)Nc1cc2c(Nc3ccc(F)c(Cl)c3)ncnc2cc1O[C@H]1CCOC1 + COc1cc2nc(C)nc(NC(C)c3cc(N)cc(C(F)(F)F)c3)c2cc1OC1CCOC1,IC50,second compound 0.1 µM,> 100 nM
same,IC50,second compound 0.316 µM,> 100 nM
same,IC50,second compound 1 µM,> 100 nM
same,IC50,second compound 3.16 µM,25 nM
same,IC50,second compound 10 µM,14.8 nM
same,"viability, T/C",[1],84.3%
same,"viability, T/C",[2],65.2%
same,"viability, T/C",[3],65.8%
same,"viability, T/C",[4],60.5%
same,"viability, T/C",[5],62.1%
same,"viability, T/C",[26],60.7%
same,"viability, T/C",[6],67.7%
same,"viability, T/C",[7],65.6%
same,"viability, T/C",[8],53.6%
same,"viability, T/C",[9],46.5%
same,"viability, T/C",[10],51.2%
same,"viability, T/C",[27],54.5%
same,"viability, T/C",[11],59.5%
same,"viability, T/C",[12],94.3%
same,"viability, T/C",[13],74.7%
same,"viability, T/C",[14],73%
same,"viability, T/C",[15],61.3%
same,"viability, T/C",[28],69.1%
same,"viability, T/C",[16],74.3%
same,"viability, T/C",[17],71.7%
same,"viability, T/C",[18],59.5%
same,"viability, T/C",[19],54.2%
same,"viability, T/C",[20],47.8%
same,"viability, T/C",[29],49.2%
same,"viability, T/C",[21],92.1%
same,"viability, T/C",[22],75.8%
same,"viability, T/C",[23],59.3%
same,"viability, T/C",[24],49.4%
same,"viability, T/C",[25],49.1%
same,"viability, T/C",[30],48.4%
COC(=O)c1ccc2c(C(=Nc3ccc(N(C)C(=O)CN4CCN(C)CC4)cc3)c3ccccc3)c(O)[nH]c2c1 + COc1cc2nc(C)nc(NC(C)c3cc(N)cc(C(F)(F)F)c3)c2cc1OC1CCOC1,IC50,second compound 0.1 µM,> 10000 nM
same,IC50,second compound 0.316 µM,> 10000 nM
same,IC50,second compound 1 µM,> 10000 nM
same,IC50,second compound 3.16 µM,> 10000 nM
same,IC50,second compound 10 µM,> 10000 nM
same,"viability, T/C",[5],92.9%
same,"viability, T/C",[26],102%
same,"viability, T/C",[31],102%
same,"viability, T/C",[32],106%
same,"viability, T/C",[33],92.6%
same,"viability, T/C",[34],86%
same,"viability, T/C",[10],89.3%
same,"viability, T/C",[27],81%
same,"viability, T/C",[35],84.1%
same,"viability, T/C",[36],78.8%
same,"viability, T/C",[37],78.1%
same,"viability, T/C",[38],74.6%
same,"viability, T/C",[15],82.6%
same,"viability, T/C",[28],73.2%
same,"viability, T/C",[39],76.8%
same,"viability, T/C",[40],74.6%
same,"viability, T/C",[41],70.8%
same,"viability, T/C",[42],68.9%
same,"viability, T/C",[20],77.3%
same,"viability, T/C",[29],77.6%
same,"viability, T/C",[43],75.6%
same,"viability, T/C",[44],81.5%
same,"viability, T/C",[45],79.3%
same,"viability, T/C",[46],75.7%
same,"viability, T/C",[25],90.8%
same,"viability, T/C",[30],86%
same,"viability, T/C",[47],77.4%
same,"viability, T/C",[48],72.8%
same,"viability, T/C",[49],77.8%
same,"viability, T/C",[50],69.7%
O=C(c1cc(Cc2n[nH]c(=O)c3ccccc23)ccc1F)N1CCN(C(=O)C2CC2)CC1 + COc1cc2nc(C)nc(NC(C)c3cc(N)cc(C(F)(F)F)c3)c2cc1OC1CCOC1,IC50,second compound 0.1 µM,> 10000 nM
same,IC50,second compound 0.316 µM,> 10000 nM
same,IC50,second compound 1 µM,> 10000 nM
same,IC50,second compound 3.16 µM,> 10000 nM
same,IC50,second compound 10 µM,> 10000 nM
same,"viability, T/C",[5],101%
same,"viability, T/C",[26],107%
same,"viability, T/C",[31],94.1%
same,"viability, T/C",[32],98.8%
same,"viability, T/C",[33],88%
same,"viability, T/C",[34],59.1%
same,"viability, T/C",[10],90.3%
same,"viability, T/C",[27],81%
same,"viability, T/C",[35],83.5%
same,"viability, T/C",[36],84.9%
same,"viability, T/C",[37],78.9%
same,"viability, T/C",[38],57.7%
same,"viability, T/C",[15],102%
same,"viability, T/C",[28],103%
same,"viability, T/C",[39],95.5%
same,"viability, T/C",[40],99%
same,"viability, T/C",[41],94.6%
same,"viability, T/C",[42],50.2%
same,"viability, T/C",[20],81.5%
same,"viability, T/C",[29],82.2%
same,"viability, T/C",[43],76.1%
same,"viability, T/C",[44],83.2%
same,"viability, T/C",[45],76.9%
same,"viability, T/C",[46],52.5%
same,"viability, T/C",[25],76.7%
same,"viability, T/C",[30],76.3%
same,"viability, T/C",[47],78.8%
same,"viability, T/C",[48],75.8%
same,"viability, T/C",[49],75.9%
same,"viability, T/C",[50],51.2%
